This note sets out measurements from patent US20230120597A1, “CO-AGONISTS AT GLP-1 AND GIP RECEPTORS SUITABLE FOR ORAL DELIVERY” (Novo Nordisk A/S, priority 2020, published 2023).

Starred links: 1 amine or outer side, 2 acyl side, 3 side chain; linkers in the order of their positions; H or OH if unused. Non-standard residues stand in square brackets, D forms with d. Residues, ends and D or L forms follow the SMILES beside them. Groups on a side chain read outwards from the residue. *: point of attachment. C18 diacid = O=C(O)CCCCCCCCCCCCCCCCC(=O)*; γGlu = O=C(O)[C@H](CCC(=O)[*:2])N[*:1]; εLys = N[C@@H](CCCCN[*:1])C(=O)[*:2]; Aib = CC(C)(N)C(=O)O

The nature of this series: Pharmacokinetic study in dogs, oral dosing of tablet compositions with SNAC. In kind it is in vivo, Beagle dogs. To be noted: dog, in vivo, po. The method, then:
The purpose of this example is to determine the half-life and plasma exposure in vivo of the compounds of the present invention after p.o. administration to beagle dogs, i.e. the terminal half-life and concentration of test substance that reaches circulation with time. This is done in a pharmacokinetic (PK) study, where these parameters of the compound in question are determined. By terminal half-life is generally meant the period of time it takes to halve a certain plasma concentration, measured after the initial distribution phase.
The amount of SNAC in the tablet composition was 100-300 mg, the amount of magnesium stearate in the tablet composition was 7.7 mg, and the target amount of each test substance in the tablet composition was 3-4 mg.
Male beagle dogs, 1-7 years of age and weighing 9-17 kg during the study period, were included in the study. The dogs were dosed in a fasting state. The dogs were group housed in pens (12 hours light: 12 hours dark), and fed individually and restrictedly once daily with Royal Canin Medium Adult dog food (Royal Canin Products, China Branch, or Brogaarden A/S, Denmark). The dogs were used for repeated PK studies with a suitable wash-out period between successive dosing. An appropriate acclimatization period was given prior to initiation of the first PK study. All handling, dosing, and blood sampling of the animals were performed by trained and skilled staff. Before the studies, the dogs were fasted overnight and from 0 to 4 hours after dosing. The dogs were restricted to water 1 hour before dosing until 4 hours after dosing, but otherwise had ad libitum access to water during the whole period.
The compositions were administered by a single oral dosing to the dogs in groups of 6-8 dogs. […] The mouth was then closed, and 10 mL of tap water was given by syringe or gavage to facilitate swallowing of the tablet.
One blood sample was drawn before dosing, and additional samples were drawn at predefined time points after dosing for up to 240 hours, such as up to 10 hours, to adequately cover the full plasma concentration-time absorption profile of the test substance. For each blood sample time point, approximately 0.8 mL of whole blood was collected in a 1.5 mL EDTA-coated tube, which was gently turned to mix the sample with EDTA. Blood samples were collected in EDTA buffer (8 mM) and then centrifuged at 4° C. 2000 g for 10 minutes. Plasma was pipetted into Micronic tubes on dry ice, and kept at −20° C. or lower until analysis. Blood samples were taken as appropriate, for example from a venflon in the cephalic vein in the front leg for the first 2 hours and then with syringe from the jugular vein for the rest of the time points. The first few drops were allowed to drain from the venflon to avoid heparin saline from the venflon in the sample.
All blood samples were collected into test tubes containing EDTA for stabilisation and kept on ice until centrifugation. Plasma was separated from whole blood by centrifugation and the plasma was stored at −20° C. or lower until analysis.
The plasma was analysed for test substance using LC-MS (Liquid Chromatography-Mass Spectrometry) as known to the person skilled in the art. […] RP-HPLC separation was achieved using a linear gradient of 1:1 acetonitrile/methanol in 1% aqueous formic acid using either: a Phenomenex Onyx Monolithic C18 column (50×2.0 mm) and a flow rate of 0.8 mL/min at 30° C.; or an Agilent Poroshell 120 SB-C18 column (50×2.1 mm, 2.7 μm) at a flow rate of 0.4 mL/min at 60° C. The mass spectrometer was operated in either positive ionization SIM mode or positive ionization PRM mode.
For each individual animal, a plasma concentration-time profile was analysed by a non-compartmental model in Pharsight Phoenix WinNonLin ver.

`CC[C@H](C)[C@H](NC(=O)[C@H](Cc1ccccc1)NC(=O)[C@H](CCC(=O)O)NC(=O)[C@H](CCCNC(=N)N)NC(=O)[C@H](C)NC(=O)[C@H](C)NC(=O)[C@H](CCC(N)=O)NC(=O)[C@H](CCC(=O)O)NC(=O)[C@H](CCC(=O)O)NC(=O)[C@H](CC(C)C)NC(=O)[C@H](CC(C)C)NC(=O)[C@H](CCCCNC(=O)[C@@H](N)CCCCNC(=O)[C@@H](N)CCCCNC(=O)CC[C@H](NC(=O)CCCCCCCCCCCCCCCCC(=O)O)C(=O)O)NC(=O)[C@H](CO)NC(=O)[C@H](Cc1ccc(O)cc1)NC(=O)[C@H](CC(=O)O)NC(=O)[C@H](CO)NC(=O)[C@@H](NC(=O)[C@H](Cc1ccccc1)NC(=O)[C@@H](NC(=O)CNC(=O)[C@H](CCC(=O)O)NC(=O)C(C)(C)NC(=O)[C@@H](N)Cc1ccc(O)cc1)[C@@H](C)O)[C@@H](C)O)C(=O)N[C@@H](CCC(=O)O)C(=O)N[C@@H](Cc1c[nH]c2ccccc12)C(=O)N[C@@H](CC(C)C)C(=O)N[C@@H](CC(C)C)C(=O)N[C@@H](C)C(=O)NCC(=O)NCC(=O)N1CCC[C@H]1C(=O)N[C@@H](CO)C(=O)N[C@@H](CO)C(=O)NCC(=O)N[C@@H](C)C(=O)N1CCC[C@H]1C(=O)N1CCC[C@H]1C(=O)N1CCC[C@H]1C(=O)N[C@@H](CO)C(=O)O` [Compound No. 40] gave an AUC/Dose of 27.0 kg·h/L.

`CC[C@H](C)[C@H](NC(=O)[C@H](Cc1ccccc1)NC(=O)[C@H](CCC(=O)O)NC(=O)[C@H](CCCNC(=N)N)NC(=O)[C@H](C)NC(=O)[C@H](C)NC(=O)[C@H](CCC(N)=O)NC(=O)[C@H](CCC(=O)O)NC(=O)[C@H](CCC(=O)O)NC(=O)[C@H](CC(C)C)NC(=O)[C@H](CC(C)C)NC(=O)[C@@H](NC(=O)[C@H](CO)NC(=O)[C@H](Cc1ccc(O)cc1)NC(=O)[C@H](CC(=O)O)NC(=O)[C@H](CO)NC(=O)[C@@H](NC(=O)[C@H](Cc1ccccc1)NC(=O)[C@@H](NC(=O)CNC(=O)[C@H](CCC(=O)O)NC(=O)C(C)(C)NC(=O)[C@@H](N)Cc1ccc(O)cc1)[C@@H](C)O)[C@@H](C)O)[C@@H](C)CC)C(=O)N[C@@H](CCC(=O)O)C(=O)N[C@@H](Cc1c[nH]c2ccccc12)C(=O)N[C@@H](CC(C)C)C(=O)N[C@@H](CC(C)C)C(=O)N[C@@H](C)C(=O)NCC(=O)NCC(=O)N1CCC[C@H]1C(=O)N[C@@H](CO)C(=O)N[C@@H](CCCCNC(=O)[C@@H](N)CCCCNC(=O)[C@@H](N)CCCCNC(=O)CC[C@H](NC(=O)CCCCCCCCCCCCCCCCC(=O)O)C(=O)O)C(=O)NCC(=O)N[C@@H](C)C(=O)N1CCC[C@H]1C(=O)N1CCC[C@H]1C(=O)N1CCC[C@H]1C(=O)N[C@@H](CO)C(=O)O` [Compound No. 43] (H-Y[Aib]EGTFTSDYSILLEEQAAREFIEWLLAGGPSK([εLys-εLys-γGlu-C18 diacid])GAPPPS-OH): the AUC/Dose worked out at 21.4 kg·h/L and the Cmax/Dose came to 0.22 kg/L.
